Assay results published in patent publication US8912207B2, “2-aldoximino-5-fluoropyrimidine derivatives” (Dow AgroSciences, LLP., priority 2009, dated 2014).
Read-outs that look alike come from different tables or passages of the source.

Key:
[1] = system: Mycosphaerella graminicola; anamorph: Septoria tritici; Bayer code SEPTTR; assay: Fungicidal activity: leaf blotch of wheat, one-day protectant (1DP) and three-day curative (3DC) tests on wheat plants; assay type: in vivo, Septoria tritici on wheat plants (variety Yuma); conditions: Zymoseptoria tritici, rating of % disease control vs untreated inoculated plants
Experimental: Evaluation of Fungicidal Activity: Leaf Blotch of Wheat (Mycosphaerella graminicola; anamorph: Septoria tritici; Bayer code […]) Wheat plants (variety Yuma) were grown from seed in a greenhouse in 50% mineral soil/50% soil-less Metro mix until the first leaf was fully emerged, with 7-10 seedlings per pot. These plants were inoculated with an aqueous spore suspension of Septoria tritici either prior to or after fungicide treatments. After inoculation the plants were kept in 100% relative humidity (one day in a dark dew chamber followed by two to three days in a lighted dew chamber) to permit spores to germinate and infect the leaf. The plants were then transferred to a greenhouse for disease to develop. The following table presents the activity of typical compounds of the present disclosure when evaluated in these experiments. The effectiveness of the test compounds in controlling disease was determined by assessing the severity of disease on treated plants, then converting the severity to percent control based on the level of disease on untreated, inoculated plants. In each case of Table III the rating scale is as follows: […]

[2] = 24 h, one-day protectant, read-out: SEPTTR 25 ppm 1DP
[3] = 24 h, one-day protectant, read-out: SEPTTR 100 ppm 1DP
[4] = 72 h, three-day curative, read-out: SEPTTR 25 ppm 3DC
[5] = 72 h, three-day curative, read-out: SEPTTR 100 ppm 3DC

Structure (SMILES)	melting point	pest or weed control at 25 ppm [1, 2] [%]	pest or weed control at 100 ppm [1, 3] [%]	pest or weed control at 25 ppm [1, 4] [%]	pest or weed control at 100 ppm [1, 5] [%]
CN(C)/C=N/c1nc(ON=Cc2ccccc2)ncc1F [Compound 1, N′-{5-fluoro-2-[1-phenylmethylideneamino-oxy]pyrimidin-4-yl}-N,N-dimethylformamidine]	240 to 244 °C (dec.)	76 to 100	76 to 100	76 to 100	76 to 100
CN(C)/C=N/c1nc(ON=Cc2ccc(Cl)cc2)ncc1F [Compound 2]	230 to 242 °C (dec.)	76 to 100	76 to 100	76 to 100	76 to 100
CN(C)/C=N/c1nc(ON=Cc2ccccc2Cl)ncc1F [Compound 3]	186 to 210 °C (dec.)	76 to 100	76 to 100	76 to 100	76 to 100
O=CNc1nc(ON=Cc2ccccc2)ncc1F [Compound 4, N-{5-fluoro-2-[1-phenylmethylideneamino-oxy]pyrimidin-4-yl}formamide]		76 to 100	76 to 100	76 to 100	76 to 100
Nc1nc(ON=Cc2ccccc2Cl)ncc1F [Compound 5, 2-chlorobenzaldehyde O-(4-amino-5-fluoropyrimidin-2-yl)oxime]	220 to 230 °C (dec.)	76 to 100	76 to 100	76 to 100	76 to 100
Nc1nc(ON=Cc2ccccc2)ncc1F [Compound 6]	151 to 153 °C	76 to 100	76 to 100	76 to 100	76 to 100
CC(C)C=NOc1ncc(F)c(N)n1 [Compound 7]	105 to 107 °C	76 to 100	76 to 100	76 to 100	76 to 100
Nc1nc(ON=Cc2ccc(Cl)cc2)ncc1F [Compound 8]	200 to 220 °C (dec.)	76 to 100	76 to 100	76 to 100	76 to 100
COc1ccccc1C=NOc1ncc(F)c(N)n1 [Compound 9]	240 to 250 °C (dec.)	76 to 100	76 to 100	76 to 100	76 to 100
CC=NOc1ncc(F)c(N)n1 [Compound 10]	102 to 105 °C	76 to 100	76 to 100	76 to 100	76 to 100
Cc1ccc(C=NOc2ncc(F)c(N)n2)cc1 [Compound 11]	201 to 220 °C (dec.)	76 to 100	76 to 100	76 to 100	76 to 100
COc1ccc(C=NOc2ncc(F)c(N)n2)cc1 [Compound 12]	250 to 270 °C (dec.)	76 to 100	76 to 100	76 to 100	76 to 100
COc1ccc(C=NOc2ncc(F)c(/N=C/N(C)C)n2)cc1 [Compound 13, N′-{5-Fluoro-2-[1-(4-methoxyphenyl)-methylideneaminooxy]pyrimidin-4-yl}-N,N-dimethylformamidine]	243 to 245 °C (dec.)	76 to 100	76 to 100	76 to 100	76 to 100
COc1ccccc1C=NOc1ncc(F)c(/N=C/N(C)C)n1 [Compound 14]	220 to 230 °C (dec.)	76 to 100	76 to 100	76 to 100	76 to 100
Cc1ccc(C=NOc2ncc(F)c(/N=C/N(C)C)n2)cc1 [Compound 15]	247 to 253 °C (dec.)	76 to 100	76 to 100	76 to 100	76 to 100
CC(C)C=NOc1ncc(F)c(NCc2ccccc2F)n1 [Compound 16, 2-methylpropionaldehyde O-[5-fluoro-4-(2-fluorobenzylamino)pyrimidin-2-yl]oxime]		0 to 25	0 to 25	51 to 75	76 to 100
Fc1ccccc1CNc1nc(ON=Cc2ccccc2)ncc1F [Compound 17]		76 to 100	76 to 100	0 to 25	0 to 25
Fc1ccccc1CNc1nc(ON=Cc2ccc(Cl)cc2)ncc1F [Compound 18]	98 to 103 °C	76 to 100	76 to 100	0 to 25	0 to 25

Structure (SMILES)	melting point	pest or weed control at 25 ppm [1, 2] [%]	pest or weed control at 100 ppm [1, 3] [%]	pest or weed control at 25 ppm [1, 4] [%]	pest or weed control at 100 ppm [1, 5] [%]
COc1ccc(C=NOc2ncc(F)c(NCc3ccccc3F)n2)cc1 [Compound 19]		51 to 75	76 to 100	0 to 25	0 to 25
CC=NOc1ncc(F)c(NCc2ccccc2F)n1 [Compound 20]	99 to 100 °C	26 to 50	51 to 75	51 to 75	76 to 100
Fc1cnc(ON=Cc2ccccc2)nc1NCc1ccccc1 [Compound 21]	111 to 113 °C	0 to 25	76 to 100	51 to 75	76 to 100
Fc1cnc(ON=Cc2ccc(Cl)cc2)nc1NCc1ccccc1 [Compound 22]	111 to 114 °C	0 to 25	76 to 100	0 to 25	0 to 25
COc1ccc(C=NOc2ncc(F)c(NCc3ccccc3)n2)cc1 [Compound 23]	180 to 194 °C	0 to 25	76 to 100	26 to 50	26 to 50
CC=NOc1ncc(F)c(NCc2ccccc2)n1 [Compound 24]		0 to 25	0 to 25	0 to 25	26 to 50
CC(C)C=NOc1ncc(F)c(NCc2ccccc2)n1 [Compound 25]		0 to 25	26 to 50	26 to 50	76 to 100
Fc1cnc(ON=Cc2ccccc2)nc1NCc1ccc(Cl)cc1 [Compound 26]	127 to 128 °C	0 to 25	0 to 25	26 to 50	26 to 50
Fc1cnc(ON=Cc2ccc(Cl)cc2)nc1NCc1ccc(Cl)cc1 [Compound 27]	119 to 121 °C	0 to 25	26 to 50	26 to 50	51 to 75
COc1ccc(CNc2nc(ON=Cc3ccccc3)ncc2F)cc1 [Compound 31]		26 to 50	76 to 100	51 to 75	76 to 100
COc1ccc(CNc2nc(ON=Cc3ccc(Cl)cc3)ncc2F)cc1 [Compound 32]		0 to 25	0 to 25	26 to 50	76 to 100
COc1ccc(C=NOc2ncc(F)c(NCc3ccc(OC)cc3)n2)cc1 [Compound 33]		51 to 75	76 to 100	0 to 25	51 to 75
COc1ccc(CNc2nc(ON=CC(C)C)ncc2F)cc1 [Compound 35]		0 to 25	26 to 50	0 to 25	76 to 100
CN(Cc1ccccc1)c1nc(ON=Cc2ccccc2)ncc1F [Compound 36]		0 to 25	0 to 25	26 to 50	51 to 75
COc1ccc(C=NOc2ncc(F)c(N(C)Cc3ccc(Cl)cc3)n2)cc1 [Compound 43]		0 to 25	0 to 25	26 to 50	26 to 50
CC=NOc1ncc(F)c(N(C)Cc2ccc(Cl)cc2)n1 [Compound 44]	214 to 220 °C (dec.)				
COc1ccc(CN(C)c2nc(ON=Cc3ccccc3)ncc2F)cc1 [Compound 46]		0 to 25	0 to 25	26 to 50	76 to 100
CC=NOc1ncc(F)c(N(C)Cc2ccc(OC)cc2)n1 [Compound 49]		0 to 25	0 to 25	0 to 25	26 to 50
